Assay results taken from US7109193B2, “Tricyclic diazepines tocolytic oxytocin receptor antagonists” (Wyeth, priority 2001, dated 2006).

Target: T1, human vasopressin V2 receptor subtype (Homo sapiens, UniProt P30518)
T1 construct: host or cells: CHO cells (pZeoSV vector)
Test: Vasopressin binding in Chinese Hamster Ovary cell membranes expressing human vasopressin V2 subtype receptors
Conditions: 100 nM, CHO cell membranes, [3H]arginine vasopressin, values without parentheses
Protocol: Vasopressin Binding in Chinese Hamster Ovary Cell Membranes Expressing Human Vasopressin V2 Subtype Receptors
Chinese Hamster Ovary (CHO) cells stably transfected with the human V2 subtype receptors were obtained from M. Thibonnier, Case Western Reserve University School of Medicine, Cleveland, Ohio.
A. Passaging and Amplification of Cells:
The trypsin is removed by aspiration and the cells dislodged by tapping. Cell Culture medium (e.g. 30 mL for 1:30 split) is immediately added and mixed well to inactivate trypsin. 1 mL of detached cells is added to new culture flasks containing fresh Cell Culture medium (e.g. into 25 mL per T-150 flask), and mixed gently. The cells are incubated at 37° C. in 5% CO2. The medium is changed at 3 to 4 day interval (or as appropriate). […] All steps are done under sterile conditions. B. Membrane Preparation: The cells are washed twice gently with Hank's Balanced Salt solution (e.g. use 10 mL per T-150 flask). […] The contents are transferred to centrifuge tubes (50 mL) kept in ice bath. All subsequent steps are done at 4° C. The tubes are centrifuged at 300×g for 15 min (1380 rpm on SORVAL, Model RT6000D, using the rotor for 50 mL tubes). The supernatant is discarded and the cells suspended in homogenizing buffer (10 mM Tris-HCl containing 0.25 M sucrose and 1 mM EDTA, pH 7.4) ensuring that the volume of the buffer is about ten times the volume of the cell pellet. The cells are pooled into a centrifuge tube (50 mL) and homogenized with a Polytron at setting 6 for 10 sec. The homogenate is transferred into a Potter-Elvjehm homogenizer and homogenized with 3 strokes. The homogenate is centrifuged at 1500×g for 60 min at 4° C. (3100 rpm using SORVAL, model RT6000D, using the rotor for 50 mL tubes). The pellet is discarded. The supernatant is centrifuged at 100,000×g for 60 min. at 4° C. (Beckman L8-80M ultracentrifuge; spin at 37,500 rpm with rotor type 70 Ti for 50 mL tubes; 38,000 rpm with type 80Ti for 15 mL tubes; or 35,800 rpm with rotor type 45Ti). The supernantant is discarded and the pellet suspended in 3 to 4 mL of Tris buffer (50 mM TRIS-HCl, pH 7.4). The protein content is estimated by the Bradford or Lowry method. The volume of the membrane suspension is adjusted with the membrane buffer (50 mM Tris-HCl containing 0.1% BSA and 0.1 mM PMSF) to give 3.0 mg/mL (or as appropriate) of protein. The membranes are aliquoted and stored at −70° C. C. Radioligand Binding Assay: In wells of a 96-well format microtiter plate, is added 90, 110 or 130 μL (to make up a final volume of 200 μL) of assay buffer containing 50 mM of Tris-HCl (pH 7.4), […], 1 mg % aprotinin, 1 mg % leupeptin, 2 mg % 1,10-phenanthroline, 10 mg % trypsin inhibitor, and 0.1 mM PMSF. The inhibitors are added on the day of the experiment. The components are mixed at room temperature, and then kept in ice bath following adjustment of the pH to 7.4. […] For vasopressin and other peptide ligands 20 μL of 50% DMSO is added and the assay buffer volume is adjusted accordingly. To each well is added 50 μL of frozen membrane suspension thawed immediately prior to use and diluted in assay buffer to the required concentration (equivalent to 25 to 50 μg of protein/well as needed). 20 μL of 8 nM [^3H]arginine vasopressin ligand in the assay buffer, prepared just before use is added and incubated at room temperature for 60 min. shaking the plate on a mechanical shaker for the first 15 min. The incubation is stopped by rapid filtration of the plate contents followed by wash with ice-cold buffer (50 mM Tris-HCl, pH 7.4) using a cell harvester (Tomtek and Printed filtermat-B filter paper). The filter paper is thoroughly dried (7–12 min. in a microwave oven) and impregnated with MeltiLex B/H melt-on scintillation wax sheets and the radioactivity counted in a betaplate scintillation counter.

T1 sequence (P30518 whole entry): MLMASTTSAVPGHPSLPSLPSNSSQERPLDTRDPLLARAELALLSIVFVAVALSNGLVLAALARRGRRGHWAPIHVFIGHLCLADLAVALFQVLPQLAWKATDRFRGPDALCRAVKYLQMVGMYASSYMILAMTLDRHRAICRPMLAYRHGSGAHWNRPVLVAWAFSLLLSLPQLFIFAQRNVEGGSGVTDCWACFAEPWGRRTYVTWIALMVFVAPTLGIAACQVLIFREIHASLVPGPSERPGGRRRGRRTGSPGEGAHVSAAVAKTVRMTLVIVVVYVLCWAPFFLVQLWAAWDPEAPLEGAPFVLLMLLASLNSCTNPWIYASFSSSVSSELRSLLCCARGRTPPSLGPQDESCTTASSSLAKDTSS

| SMILES | inhibition at 0.1 µM | V2 % inhibition @ 100 nM |
| --- | --- | --- |
| Cc1ccccc1-c1ccc(C(=O)N2Cc3ccc(C(=O)N4CCC(N5CCCC5)CC4)n3Cc3ccccc32)cc1C [Example 138, {10-[(2,2′-Dimethyl[1,1′-biphenyl]-4-yl)carbonyl]-10,11-dihydro-5H-pyrrolo[2,1-c][1,4]benzodiazepin-3-yl}[4-(1-pyrrolidinyl)-1-piperidinyl]methanone] | 29% |  |
| COc1ccccc1-c1ccc(C(=O)N2Cc3ccc(C(=O)NCCCn4ccnc4)n3Cc3ccccc32)cc1C [Example 123, N-[3-(1H-Imidazol-1-yl)propyl]-10-[(2′-methoxy-2-methyl[1,1′-biphenyl]-4-yl)carbonyl]-10,11-dihydro-5H-pyrrolo[2,1-c][1,4]benzodiazepine-3-carboxamide] | 15% |  |
| COc1cccc(-c2ccc(C(=O)N3Cc4ccc(C(=O)N5CCC(N6CCCCC6)CC5)n4Cc4ccccc43)cc2OC)c1 [Example 120, {10-[(2,3′-Dimethoxy-[1,1′-biphenyl]-4-yl)carbonyl]-10,11-dihydro-5H-pyrrolo[2,1-c][1,4]benzodiazepin-3-yl}[4-(1-piperidinyl)-1-piperidinyl]methanone] | 6% |  |
| COc1cc(-c2ccccc2C)c(Cl)cc1C(=O)N1Cc2ccc(C(=O)N3CCC[C@H]3CN3CCCC3)n2Cc2ccccc21 [Example 267, {10-[(6-Chloro-3-methoxy-2′-methyl[1,1′-biphenyl]-4-yl)carbonyl]-10,11-dihydro-5H-pyrrolo[2,1-c][1,4]benzodiazepin-3-yl}[(2S)-2-(1-pyrrolidinylmethyl)pyrrolidinyl]methanone] |  | 24% |
| Cc1ccccc1-c1ccc(C(=O)N2Cc3ccc(C(=O)NCCN4CCCCC4)n3Cc3ccccc32)cc1 [Example 153, 10-[(2′-Methyl[1,1′-biphenyl]-4-yl)carbonyl]-N-[2-(1-piperidinyl)ethyl]-10,11-dihydro-5H-pyrrolo[2,1-c][1,4]benzodiazepine-3-carboxamide] | 11% |  |
| Cc1ccccc1-c1ccc(C(=O)N2Cc3ccc(C(=O)NCCCn4ccnc4)n3Cc3ccccc32)cc1C [Example 124, 10-[(2,2′-Dimethyl[1,1′-biphenyl]-4-yl)carbonyl]-N-[3-(1H-imidazol-1-yl)propyl]-10,11-dihydro-5H-pyrrolo[2,1-c][1,4]benzodiazepine-3-carboxamide] | 21% |  |
| COc1cccc(-c2ccc(C(=O)N3Cc4ccc(C(=O)N5CCN(CCN(C)C)CC5)n4Cc4ccccc43)cc2C)c1 [Example 199, {4-[2-(Dimethylamino)ethyl]-1-piperazinyl{}10-[(3′-methoxy-2-methyl[1,1′-biphenyl]-4-yl)carbonyl]-10,11-dihydro-5H-pyrrolo[2,1-c][1,4]benzodiazepin-3-yl}methanone] |  | 6% |
| COc1cccc(-c2ccc(C(=O)N3Cc4ccc(C(=O)NCCCn5ccnc5)n4Cc4ccccc43)cc2OC)c1 [Example 133, 10-[(2,3′-Dimethoxy[1,1′-biphenyl]4-yl)carbonyl]-N-[3-(1H-imidazol-1-yl)propyl]-10,11-dihydro-5H-pyrrolo[2,1-c][1,4]benzodiazepine-3-carboxamide] | 8% |  |
| COc1ccccc1-c1ccc(C(=O)N2Cc3ccc(C(=O)NCCCn4ccnc4)n3Cc3ccccc32)cc1 [Example 126, N-[3-(1H-Imidazol-1-yl)propyl]-10-[(2′-methoxy[1,1′-biphenyl]-4-yl)carbonyl]-10,11-dihydro-5H-pyrrolo[2,1-c][1,4]benzodiazepine-3-carboxamide] | 18% |  |
| CN(C)[C@@H]1CCN(C(=O)c2ccc3n2Cc2ccccc2N(C(=O)c2ccc(-c4cccc5ccccc45)cc2Cl)C3)C1 [Example 277, {10-[2-Chloro-4-(1-naphthyl)benzoyl]-10,11-dihydro-5H-pyrrolo[2,1-c][1,4]benzodiazepin-3-yl}[(3R)-3-(dimethylamino)pyrrolidinyl]methanone] |  | 19% |
| COc1cccc(-c2ccc(C(=O)N3Cc4ccc(C(=O)NCCN5CCCCC5)n4Cc4ccccc43)cc2C)c1 [Example 151, 10-[(3′-Methoxy-2-methyl[1,1′-biphenyl]-4-yl)carbonyl]-N-[2-(1-piperidinyl)ethyl]-10,11-dihydro-5H-pyrrolo[2,1-c][1,4]benzodiazepine-3-carboxamide] | 6% |  |
| COc1cc(C(=O)N2Cc3ccc(C(=O)N4CCC[C@H]4CN4CCCC4)n3Cc3ccccc32)ccc1-n1c(C)ccc1C [Example 321, {10-[4-(2,5-Dimethyl-1H-pyrrol-1-yl)-3-methoxybenzoyl]-10,11-dihydro-5H-pyrrolo[2,1-c][1,4]benzodiazepin-3-yl}[(2S)-2-(1-pyrrolidinylmethyl)pyrrolidinyl]methanone] |  | 23% |
| COc1cc2c(cc1OC)N(C(=O)c1ccc(-c3ccccc3C(F)(F)F)c(C)c1)Cc1ccc(C(=O)N3CCC(=O)CC3)n1C2 [Example 14, 7,8-Dimethoxy-10-{[2-methyl-2′-(trifluoromethyl)-[1,1′-biphenyl]-4-yl]carbonyl}-[(10,11-dihydro-5H-pyrrolo[2,1-c][1,4]benzodiazepin-3-yl)carbonyl]-4-piperidinone] |  | −3% |
| COc1cccc(-c2ccc(C(=O)N3Cc4ccc(C(=O)N5CCC(N6CCCCC6)CC5)n4Cc4ccccc43)cc2C)c1 [Example 114, {10-[(2-Methyl-3′-methoxy[1,1′-biphenyl]-4-yl)carbonyl]-10,11-dihydro-5H-pyrrolo[2,1-c][1,4]benzodiazepin-3-yl}[4-(1-piperidinyl)-1-piperidinyl]methanone] | 22% |  |
| COc1cccc(-c2ccc(C(=O)N3Cc4ccc(C(=O)NCCCn5ccnc5)n4Cc4ccccc43)cc2C)c1 [Example 125, N-[3-(1H-Imidazol-1-yl)propyl]-10-[(3′-methoxy-2-methyl[1,1′-biphenyl]-4-yl)carbonyl]-10,11-dihydro-5H-pyrrolo[2,1-c][1,4]benzodiazepine-3-carboxamide] | 8% |  |
| COc1cccc(-c2cc(OC)c(C(=O)N3Cc4ccc(C(=O)N5CCC[C@H]5CN5CCCC5)n4Cc4ccccc43)cc2Cl)c1 [Example 268, {10-[(6-Chloro-3,3′-dimethoxy[1,1′-biphenyl]-4-yl)carbonyl]-10,11-dihydro-5H-pyrrolo[2,1-c][1,4]benzodiazepin-3-yl}[(2S)-2-(1-pyrrolidinylmethyl)pyrrolidinyl]methanone] |  | 34% |
| COc1cccc(-c2cc(OC)c(C(=O)N3Cc4ccc(C(=O)NCCCn5ccnc5)n4Cc4ccccc43)cc2Cl)c1 [Example 130, 10-[(6-Chloro-3,3′-dimethoxy[1,1′-biphenyl]-4-yl)carbonyl]-N-[3-(1H-imidazol-1-yl)propyl]-10,11-dihydro-5H-pyrrolo[2,1-c][1,4]benzodiazepine-3-carboxamide] | 5% |  |
| COc1ccccc1-c1ccc(C(=O)N2Cc3ccc(C(=O)N4CCC(N5CCCCC5)CC4)n3Cc3ccccc32)cc1OC [Example 119, {10-[(2,2′-Dimethoxy-[1,1′-biphenyl]-4-yl)carbonyl]-10,11-dihydro-5H-pyrrolo[2,1-c][1,4]benzodiazepin-3-yl}[4-(1-piperidinyl)-1-piperidinyl]methanone] | 15% |  |
| Cc1ccccc1-c1ccc(C(=O)N2Cc3ccc(C(=O)N4CCC(N5CCCC5)CC4)n3Cc3ccccc32)cc1 [Example 141, {10-[(2′-Methyl[1,1′-biphenyl]-4-yl)carbonyl]-10,11-dihydro-5H-pyrrolo[2,1-c][1,4]benzodiazepin-3-yl}[4-(1-pyrrolidinyl)-1-piperidinyl]methanone] | 8% |  |
